Experiments:
MDS and mIDH2 [1] = assay: Example 3: clinical response to COMPOUND A monotherapy (IWG 2006 MDS criteria), survival; assay type: in vivo, human
Source text: (§1) Cheson et al., Blood. 108:419-425 (2006). […] Overall survival (OS) was estimated using Kaplan-Meier methods.

[2] = test system: subjects with advanced hematologic malignancies with an IDH2 mutation; assay: Phase 1/2 study: safety profile (AEs, NCI CTCAE); assay type: in vivo, human; details: 100 mg
Source text: (§2) A DLT was defined as outlined below.
Monitoring of AEs, including determination of DLTs, serious adverse events (SAEs), and AEs leading to discontinuation; safety laboratory parameters; physical examination findings; vital signs; 12-lead ECGs; LVEF; and ECOG PS.

[3] = test system: MDS and mIDH2 with co-occurring gene mutations; assay: Example 3: association of co-occurring somatic mutations (FoundationOne Heme panel) with response to COMPOUND A; assay type: in vivo, human
Experimental: as §1
Analysis of MDS patients for association of gene mutations found with overall response rate (ORR) was performed on patients who received COMPOUND A and where a clinical response was captured for at least one time point during treatment (Table 12). An average of 2.6 genes were mutated in each patient beyond IDH2.

[4] = test system: patients with MDS and mIDH2; assay: Example 3: safety, treatment-emergent adverse events
Source text: Patients were relapsed or refractory to prior MDS therapy (Tx) or were not candidates for standard therapies. […] Evaluable patients required a response assessment at Cycle 2 Day 1 or later, or discontinued before assessment. Overall survival (OS) was estimated using Kaplan-Meier methods. Next-generation sequencing identified pre-existing co-occurring genomic alterations using the FoundationOne Heme test on purified mononuclear cells from BM or PB, to assess relationships between co-mutational status and clinical response.

[5] = test system: advanced hematologic malignancies with an IDH2 mutation; assay: Phase 1/2 study of orally administered COMPOUND A: clinical activity (overall response rate); assay type: in vivo, human; details: 44 subjects treated at 100 mg QD; preliminary efficacy data
Source text: This was a Phase 1/2, multicenter, open-label, 3-part (Phase 1 dose escalation, Phase 1 Part 1 Expansion, and Phase 2), safety, PK/PD, and clinical activity evaluation of orally administered COMPOUND A in subjects with advanced hematologic malignancies, for example MDS, that harbor an IDH2 mutation. The study included a dose escalation phase to determine MTD/MAD and/or RP2D, an expansion phase (Part 1) to further evaluate the safety, tolerability, and clinical activity of COMPOUND A, and a Phase 2 to assess the clinical efficacy of COMPOUND A at the RP2D and to further evaluate safety in subjects with refractory and relapsed AML carrying an IDH2 mutation.
Subjects in the dose escalation phase and Part 1 Expansion had the extent of their disease assessed, including bone marrow biopsies and/or aspirates and peripheral blood, at screening, on C1D15, C2D1, and C3D1, every 28 days (peripheral blood only) or every 56 days (bone marrow biopsies and/or aspirates and peripheral blood) thereafter while on study drug treatment, independent of dose delays and/or dose interruptions, and/or at any time when progression of disease was suspected. Response to treatment and treatment decisions in all subjects was determined by the Investigators based on modified International Working Group (IWG) response criteria or other appropriate response criteria for the malignancy under study. […]

MDS and mIDH2 [6] = assay: Example 2: clinical response to COMPOUND A monotherapy (IWG 2006 MDS criteria), survival; assay type: in vivo, human
Source text: as §1

2-HG plasma levels = assay: Phase 1/2 study: pharmacodynamic response, 2-HG plasma levels; assay type: in vivo, human
Experimental: Dose Escalation Phase: The dose escalation phase utilized a standard “3+3” design. During the dose escalation phase, consented eligible subjects with relapsed or refractory acute myelogenous leukemia (AML), untreated AML≧60 years of age who were not candidates for standard therapy, or myelodysplastic syndrome with refractory anemia with excess blasts were enrolled into sequential cohorts of increasing doses of COMPOUND A not to exceed 650 mg QD dose. Each dose cohort enrolled a minimum of 3 subjects. The first 3 subjects enrolled in each dosing cohort during the dose escalation portion of the study received a single dose of study drug on Day −3 (i.e., 3 days prior to the start of daily dosing) and underwent safety and PK/PD assessments over 72 hours to evaluate drug concentrations and 2-HG and α-KG levels. The next dose of study drug was on Cycle 1 Day 1 (C1D1) at which time daily dosing began. The initial dosing schedule was twice daily (approximately every 12 hours). Based on the emerging data, a once daily dosing schedule also has been implemented. […]
Subjects in the dose escalation phase and Part 1 Expansion also underwent PK/PD assessments over a 10-hour period on C1D15, C2D1, and C4D1. […] Available bone marrow biopsy samples also were assessed for 2-HG and α-KG levels. […]

[7] = test system: patients with MDS and mIDH2; assay: Example 2: safety, treatment-emergent adverse events; assay type: in vivo, human
Source text: as §2, §1

[8] = 13 patients with prior HMA therapy
[9] = IWG 2006, denominators reflect eligibility
[10] = investigator-assessed, evaluable patients had ≧5% bone marrow blasts at baseline
[11] = programmatically adjudicated per IWG 2006 criteria, denominators reflect eligibility
[12] = 10 evaluable pts with prior HMA Tx
[13] = evaluable pts had ≧5% BM blasts at baseline
[14] = sustained ≧4 weeks, from beginning COMPOUND A Tx

SMILES: CC(C)(O)CNc1nc(Nc2ccnc(C(F)(F)F)c2)nc(-c2cccc(C(F)(F)F)n2)n1.CS(=O)(=O)O [COMPOUND A, mesylate salt of 2-methyl-1-[(4-[6-(trifluoromethyl)pyridin-2-yl]-6-{[2-(trifluoromethyl)pyridin-4-yl]amino}-1,3,5-triazin-2-yl)amino]propan-2-ol]
- patients with a response among patients who had received prior HMA therapy (MDS and mIDH2 [1]; [8]): 7 patients
- response rate among patients who had received prior HMA therapy (MDS and mIDH2 [1]; [8]): 54%
- HI-E (MDS and mIDH2 [1]; [9]): 20%
- HI-E, patients/eligible (MDS and mIDH2 [1]; [9]): 3/15
- HI-N (MDS and mIDH2 [1]; [9]): 40%
- HI-N, patients/eligible (MDS and mIDH2 [1]; [9]): 4/10
- HI-P (MDS and mIDH2 [1]; [9]): 33%
- HI-P, patients/eligible (MDS and mIDH2 [1]; [9]): 4/12
- Overall response rate (CR + PR + mCR + HI) (MDS and mIDH2 [1]; MDS patients N=17): 59%
- Overall response rate (CR + PR + mCR + HI), responders/evaluable (MDS and mIDH2 [1]; MDS patients N=17): 10/17
- Best response Complete Remission (MDS and mIDH2 [1]; [10]): 9%
- Best response Complete Remission, patients/evaluable (MDS and mIDH2 [1]; [10]): 1/11
- Best response Marrow CR (MDS and mIDH2 [1]; [10]): 27%
- Best response Marrow CR, patients/evaluable (MDS and mIDH2 [1]; [10]): 3/11
- Best response Partial Remission (MDS and mIDH2 [1]; [10]): 9%
- Best response Partial Remission, patients/evaluable (MDS and mIDH2 [1]; [10]): 1/11
- median overall survival (MDS and mIDH2 [1]; median follow-up of 7.5 months): not reached
- patients with bilineage improvement (MDS and mIDH2 [1]; of patients who attained HI): 2 patients
- patients with trilineage improvement (MDS and mIDH2 [1]; of patients who attained HI): 2 patients
- Any Hematologic Improvement (HI) (MDS and mIDH2 [1]; [11]): 29%
- Any Hematologic Improvement (HI), patients/eligible (MDS and mIDH2 [1]; [11]): 5/17
- median time to response (MDS and mIDH2 [1]; treated MDS patients): 21 days
- time to response, range (MDS and mIDH2 [1]; treated MDS patients): 10 to 87 days
- safety profile, including ≧Grade 3 [2]: consistent with that of lower doses
- ORR OR ([3]; ASXL1 mutation): 2.500
- ORR OR ([3]; KRAS mutation): 0.214
- clinical responses (≧HI) by co-occurring mutation ([3]; MDS patients with mIDH2): observed in the presence of all mutations except TP53, U2AF1, SETBP1, TCF3, STAG2, NRAS, JAK2 and BRAF
- mutations enriched in MDS patients with clinical response (≧HI) ([3]; MDS patients with mIDH2): patients with mutations in SRSF2, MPL and ASXL1 are enriched
- ORR OR ([3]; MPL mutation): 4.231
- ORR OR ([3]; SETBP1 mutation): 0.082
- ORR OR ([3]; SRSF2 mutation): 12.000
- ORR OR ([3]; TP53 mutation): 0.082
- ORR OR ([3]; U2AF1 mutation): 0.082
- ORR ([3]; patients with ASXL1 mutation): 0.714
- ORR ([3]; patients with KRAS mutation): 0.333
- ORR ([3]; patients with MPL mutation): 1.000
- ORR ([3]; patients with SETBP1 mutation): 0.000
- ORR ([3]; patients with SRSF2 mutation): 0.857
- ORR ([3]; patients with TP53 mutation): 0.000
- ORR ([3]; patients with U2AF1 mutation): 0.000
- Grade 3-4 TEAE Anemia ([4]; MDS patients n=17): 18%
- Grade 3-4 TEAE Dyspnea ([4]; MDS patients n=17): 12%
- Grade 3-4 TEAE Tumor lysis syndrome ([4]; MDS patients n=17): 12%
- Grade 3-4 TEAE hypokalemia ([4]; MDS patients n=17): 18%
- Grade 3-4 TEAE pneumonia ([4]; MDS patients n=17): 24%
- Grade 3-4 TEAE thrombocytopenia ([4]; MDS patients n=17): 24%
- Grade 3-4 treatment-emergent AEs (TEAEs) ([4]; MDS patients n=17): 82%
- Grade 3-4 treatment-emergent AEs (TEAEs), patients ([4]; MDS patients n=17): 14 patients
- grade 3-4 drug-related TEAE, patients ([4]; MDS patients n=17): Six
- treatment related deaths ([4]; MDS patients n=17): No treatment related deaths were reported
- COMPOUND A-related serious TEAEs, patients ([4]; n=17, tumor lysis syndrome [2], blood bilirubin increased, transaminitis): 4 patients
- Grade 3-4 TEAE Hyperbilirubinemia ([4]; n=17, unconjugated, includes hyperbilirubinemia and blood bilirubin increased): 30%
- overall response rate [5]: 36.4%
- responses in pts with no prior MDS Tx (MDS and mIDH2 [6]; 4 pts with no prior MDS Tx): a PR and mCR (1 each)
- pts with a response among pts who had received prior HMA Tx (MDS and mIDH2 [6]; [12]): 5 pts
- response rate among pts who had received prior HMA Tx (MDS and mIDH2 [6]; [12]): 50%
- Best response Hematologic Improvement (MDS and mIDH2 [6]; MDS pts N=16): (27) %
- Best response Hematologic Improvement, pts/evaluable (MDS and mIDH2 [6]; MDS pts N=16): 4/15
- Overall response rate (CR + PR + mCR + HI), responders/evaluable (MDS and mIDH2 [6]; MDS pts N=16, oral 60-300 mg daily, 28-day cycles): 8/15
- Best response Complete Remission (MDS and mIDH2 [6]; [13]): (11) %
- Best response Marrow CR (MDS and mIDH2 [6]; [13]): (22) %
- Best response Marrow CR, pts/evaluable (MDS and mIDH2 [6]; [13]): 2/9
- Best response Partial Remission (MDS and mIDH2 [6]; [13]): (11) %
- Best response Partial Remission, pts/evaluable (MDS and mIDH2 [6]; [13]): 1/9
- Median OS (MDS and mIDH2 [6]; median follow-up of 4.7 months, Kaplan-Meier): not reached
- Median time to CR, PR, or mCR (MDS and mIDH2 [6]; [14]): 24 days
- time to CR, PR, or mCR, range (MDS and mIDH2 [6]; [14]): 17 to 87 days
- Median time to HI (MDS and mIDH2 [6]; sustained ≧8 weeks): 11 days
- time to HI, range (MDS and mIDH2 [6]; sustained ≧8 weeks): 11 to 60 days
- inhibition of 2-HG plasma levels (2-HG plasma levels; most subjects with R140Q mutation, all doses, sustained reduction by Day 1 of Cycle 2): up to 98%
- exposure and inhibition of 2-HG versus dose (2-HG plasma levels; subjects with R172K mutation): Increasing dose was associated with higher exposure and inhibition of 2-HG
- Grade 3-4 TEAE hyperbilirubinemia (unconjugated) ([7]; MDS pts N=16): 5 n
- Grade 3-4 TEAE hypokalemia ([7]; MDS pts N=16): 3 n
- Grade 3-4 TEAE pneumonia ([7]; MDS pts N=16): 4 n
- Grade 3-4 TEAE thrombocytopenia ([7]; MDS pts N=16): 3 n
- Grade 3-4 treatment-emergent AEs (TEAEs) ([7]; MDS pts N=16): 81%
- Grade 3-4 treatment-emergent AEs (TEAEs), pts ([7]; MDS pts N=16): 13 pts
- grade 3-4 drug-related TEAE ([7]; MDS pts N=16): 44%
- grade 3-4 drug-related TEAE, pts ([7]; MDS pts N=16): Seven
- tolerability of daily oral monotherapy ([7]; MDS pts with mIDH2): well tolerated

Source: patent publication US20180042930A1, “METHODS OF TREATMENT OF MALIGNANCIES” (Celgene Corporation, priority 2016, published 2018)
